Series [1] in a line: Oral bioavailability in mouse. It is filed as ADME, organism-based. Conditions: in vivo.
The test system of series [2] is MV4-11. Briefly: Antiproliferative activity against human MV4-11 cells. It is filed as functional.
Series [3] concerns MOLM-13. Briefly: Antiproliferative activity against human MOLM-13 cells. Format: functional.
The target of series [4] is T1, Menin/Histone-lysine N-methyltransferase MLL (Homo sapiens, UniProt O00255). The experiment in a line: Inhibition of human Menin to MLL protein-protein interaction. It is filed as protein assay.
T1 sequence (O00255 whole entry): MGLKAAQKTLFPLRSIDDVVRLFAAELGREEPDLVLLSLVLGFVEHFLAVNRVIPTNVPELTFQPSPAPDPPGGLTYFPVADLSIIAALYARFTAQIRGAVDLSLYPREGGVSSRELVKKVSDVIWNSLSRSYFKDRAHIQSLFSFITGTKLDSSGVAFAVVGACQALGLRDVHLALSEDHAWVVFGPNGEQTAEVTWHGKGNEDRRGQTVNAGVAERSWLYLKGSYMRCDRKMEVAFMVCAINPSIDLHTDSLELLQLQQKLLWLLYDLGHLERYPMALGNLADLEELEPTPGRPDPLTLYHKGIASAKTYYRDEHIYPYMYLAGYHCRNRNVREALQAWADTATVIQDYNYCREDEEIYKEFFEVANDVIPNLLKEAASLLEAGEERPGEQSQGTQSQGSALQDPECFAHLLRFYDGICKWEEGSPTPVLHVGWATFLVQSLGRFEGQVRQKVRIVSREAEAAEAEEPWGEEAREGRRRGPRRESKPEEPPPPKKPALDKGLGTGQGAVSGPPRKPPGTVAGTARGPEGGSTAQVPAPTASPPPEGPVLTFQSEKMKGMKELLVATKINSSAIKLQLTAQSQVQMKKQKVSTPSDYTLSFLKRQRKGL
T1 sequence (Q03164 1-2718 partner limits assumed): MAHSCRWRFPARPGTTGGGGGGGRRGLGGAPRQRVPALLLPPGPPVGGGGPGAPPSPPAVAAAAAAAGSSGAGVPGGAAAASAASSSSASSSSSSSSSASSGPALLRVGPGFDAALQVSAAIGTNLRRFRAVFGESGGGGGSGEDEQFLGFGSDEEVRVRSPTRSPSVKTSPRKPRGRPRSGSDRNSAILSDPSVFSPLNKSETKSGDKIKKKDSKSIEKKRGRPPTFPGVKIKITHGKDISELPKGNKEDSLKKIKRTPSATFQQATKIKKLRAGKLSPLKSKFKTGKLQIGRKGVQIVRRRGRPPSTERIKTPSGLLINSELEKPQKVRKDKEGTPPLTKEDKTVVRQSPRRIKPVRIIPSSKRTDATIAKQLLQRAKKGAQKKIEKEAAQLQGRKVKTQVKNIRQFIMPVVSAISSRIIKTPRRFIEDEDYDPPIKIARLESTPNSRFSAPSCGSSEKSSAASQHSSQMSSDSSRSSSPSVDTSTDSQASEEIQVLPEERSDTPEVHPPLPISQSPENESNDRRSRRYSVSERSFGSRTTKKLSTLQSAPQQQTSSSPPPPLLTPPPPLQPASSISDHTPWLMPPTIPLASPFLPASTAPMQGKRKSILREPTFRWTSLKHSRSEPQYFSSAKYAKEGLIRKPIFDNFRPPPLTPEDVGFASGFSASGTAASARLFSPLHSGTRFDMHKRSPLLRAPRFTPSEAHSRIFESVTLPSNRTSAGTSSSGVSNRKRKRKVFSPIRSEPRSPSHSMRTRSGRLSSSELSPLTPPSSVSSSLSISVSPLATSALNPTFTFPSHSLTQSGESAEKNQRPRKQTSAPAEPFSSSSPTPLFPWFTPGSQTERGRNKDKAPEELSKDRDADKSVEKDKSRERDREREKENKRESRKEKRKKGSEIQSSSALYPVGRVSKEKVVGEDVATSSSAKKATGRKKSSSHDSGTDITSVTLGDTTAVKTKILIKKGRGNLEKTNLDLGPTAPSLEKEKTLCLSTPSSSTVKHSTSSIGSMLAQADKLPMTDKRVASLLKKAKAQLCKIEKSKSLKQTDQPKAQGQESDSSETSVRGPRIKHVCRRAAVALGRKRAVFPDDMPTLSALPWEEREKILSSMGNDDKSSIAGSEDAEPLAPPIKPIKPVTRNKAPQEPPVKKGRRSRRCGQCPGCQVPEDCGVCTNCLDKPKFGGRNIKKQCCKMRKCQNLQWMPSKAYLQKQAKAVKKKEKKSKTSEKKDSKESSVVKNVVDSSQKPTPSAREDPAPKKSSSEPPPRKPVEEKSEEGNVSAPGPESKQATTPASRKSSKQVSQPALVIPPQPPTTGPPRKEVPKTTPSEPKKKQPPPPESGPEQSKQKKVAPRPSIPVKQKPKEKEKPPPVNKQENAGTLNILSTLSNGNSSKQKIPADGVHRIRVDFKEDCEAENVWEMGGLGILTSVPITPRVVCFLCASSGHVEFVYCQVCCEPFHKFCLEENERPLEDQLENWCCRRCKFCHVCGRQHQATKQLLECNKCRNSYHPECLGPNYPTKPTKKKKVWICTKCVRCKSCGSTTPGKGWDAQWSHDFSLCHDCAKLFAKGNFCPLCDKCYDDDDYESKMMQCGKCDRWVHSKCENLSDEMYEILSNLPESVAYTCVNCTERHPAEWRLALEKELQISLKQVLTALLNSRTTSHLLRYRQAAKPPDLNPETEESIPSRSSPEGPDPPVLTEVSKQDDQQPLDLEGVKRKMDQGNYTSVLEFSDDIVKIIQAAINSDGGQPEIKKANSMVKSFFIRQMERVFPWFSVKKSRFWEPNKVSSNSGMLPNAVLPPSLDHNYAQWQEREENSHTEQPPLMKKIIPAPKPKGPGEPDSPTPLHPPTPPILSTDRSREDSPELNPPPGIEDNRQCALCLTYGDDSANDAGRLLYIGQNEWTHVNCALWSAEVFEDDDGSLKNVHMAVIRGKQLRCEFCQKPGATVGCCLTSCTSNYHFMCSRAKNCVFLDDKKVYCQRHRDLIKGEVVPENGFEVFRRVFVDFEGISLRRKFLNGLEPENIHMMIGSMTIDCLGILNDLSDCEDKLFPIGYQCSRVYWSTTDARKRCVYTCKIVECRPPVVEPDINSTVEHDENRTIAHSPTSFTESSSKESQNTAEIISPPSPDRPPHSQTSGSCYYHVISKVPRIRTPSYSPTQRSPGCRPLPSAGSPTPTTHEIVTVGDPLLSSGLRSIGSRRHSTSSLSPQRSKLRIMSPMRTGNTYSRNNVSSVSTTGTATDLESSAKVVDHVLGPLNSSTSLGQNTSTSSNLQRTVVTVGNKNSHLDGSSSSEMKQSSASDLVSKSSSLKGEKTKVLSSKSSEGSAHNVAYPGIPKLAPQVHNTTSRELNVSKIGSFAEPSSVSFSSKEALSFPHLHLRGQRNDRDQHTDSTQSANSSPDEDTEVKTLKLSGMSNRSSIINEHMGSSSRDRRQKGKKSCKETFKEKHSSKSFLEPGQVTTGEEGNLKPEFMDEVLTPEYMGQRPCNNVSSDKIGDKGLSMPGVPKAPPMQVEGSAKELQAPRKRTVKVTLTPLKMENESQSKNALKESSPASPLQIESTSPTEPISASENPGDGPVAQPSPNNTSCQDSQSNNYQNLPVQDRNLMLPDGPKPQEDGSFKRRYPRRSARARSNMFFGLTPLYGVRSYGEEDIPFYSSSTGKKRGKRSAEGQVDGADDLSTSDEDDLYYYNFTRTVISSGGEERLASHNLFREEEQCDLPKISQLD
T1 sequence (Q03164 2719-3969 partner limits assumed): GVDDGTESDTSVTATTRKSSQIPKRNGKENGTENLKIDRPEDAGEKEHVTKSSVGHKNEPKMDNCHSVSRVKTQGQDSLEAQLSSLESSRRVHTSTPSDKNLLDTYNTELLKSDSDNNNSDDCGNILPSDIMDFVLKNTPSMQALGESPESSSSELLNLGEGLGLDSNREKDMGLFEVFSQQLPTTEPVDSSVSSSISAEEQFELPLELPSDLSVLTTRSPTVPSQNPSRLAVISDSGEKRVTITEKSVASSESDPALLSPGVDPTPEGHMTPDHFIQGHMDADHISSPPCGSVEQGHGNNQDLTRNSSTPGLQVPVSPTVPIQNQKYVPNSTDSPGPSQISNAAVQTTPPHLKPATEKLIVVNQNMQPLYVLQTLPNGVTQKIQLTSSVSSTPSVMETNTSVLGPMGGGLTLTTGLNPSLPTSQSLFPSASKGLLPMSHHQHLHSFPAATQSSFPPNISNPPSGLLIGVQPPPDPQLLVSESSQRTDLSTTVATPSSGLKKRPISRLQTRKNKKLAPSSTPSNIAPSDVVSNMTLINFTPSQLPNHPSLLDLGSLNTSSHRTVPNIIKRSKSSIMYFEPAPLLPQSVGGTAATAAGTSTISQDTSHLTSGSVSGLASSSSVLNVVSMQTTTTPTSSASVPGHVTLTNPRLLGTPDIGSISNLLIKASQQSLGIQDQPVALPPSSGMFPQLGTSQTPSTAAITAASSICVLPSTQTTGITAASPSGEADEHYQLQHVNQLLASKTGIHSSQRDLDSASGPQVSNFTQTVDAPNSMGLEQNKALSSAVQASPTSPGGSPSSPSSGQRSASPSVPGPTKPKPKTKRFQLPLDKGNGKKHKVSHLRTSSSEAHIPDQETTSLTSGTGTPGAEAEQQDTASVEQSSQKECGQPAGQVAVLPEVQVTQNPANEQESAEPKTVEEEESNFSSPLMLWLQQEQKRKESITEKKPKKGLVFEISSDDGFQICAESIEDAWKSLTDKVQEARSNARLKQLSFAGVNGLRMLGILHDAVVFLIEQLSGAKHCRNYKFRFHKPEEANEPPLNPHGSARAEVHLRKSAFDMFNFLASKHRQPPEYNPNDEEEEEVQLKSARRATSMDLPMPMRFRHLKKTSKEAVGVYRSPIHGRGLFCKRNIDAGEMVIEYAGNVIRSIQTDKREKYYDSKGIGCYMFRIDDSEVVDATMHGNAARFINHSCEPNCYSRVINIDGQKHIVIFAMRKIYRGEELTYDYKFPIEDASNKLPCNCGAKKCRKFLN
The target in series [5] is T1, Menin/Histone-lysine N-methyltransferase MLL. The experiment in a line: Inhibition of Menin to MLL (unknown origin) protein-protein interaction. It is filed as protein assay.

For ten compounds, bioavailability, GI50 and IC50 results are on record in ChEMBL document CHEMBL5226348, “Recent Progress of Small Molecule Menin-MLL Interaction Inhibitors as Therapeutic Agents for Acute Leukemia” (J Med Chem, 2021).

The bioavailability is the share of a dose that reaches the circulation, judged against a reference dose that is usually intravenous. A word on the GI50: it is the concentration giving 50% growth inhibition. A higher GI50 goes with less potent growth inhibition. As a reminder, the IC50 is the concentration needed to halve the response being measured. A low value points to higher potency.

`Cc1c(CN2CCC(Nc3ncnc4sc(CC(F)(F)F)cc34)CC2)ccc2[nH]c(C#N)cc12` showed a bioavailability in series [1] of 44%.

Regarding `COC(=O)N[C@H]1CCC[C@@H]1[C@](C#N)(c1cccc(F)c1)C1CCN(CC2CN(c3ccc(S(=O)(=O)C4CN(C(=O)/C=C/CN(C)C)C4)cc3)C2)CC1`, the figures for the GI50 in series [2] and in series [3] were 2.7 nM and 15.4 nM, respectively.

In turn, `NCC(CCN1CC=C(c2ccc(Cl)cc2)CC1)(c1ccccc1)C1CCCC1` (stereo not given) gave an IC50 in series [4] of 0.83 nM.

`Cc1c(CN2CCC(Nc3ncnc4sc(CC(F)(F)F)cc34)CC2)ccc2c1cc(C#N)n2Cc1cn[nH]c1` showed a bioavailability in series [1] of 73%.

Consider `CCCc1cc2c(N3CCN(C4=NCC(C)(C)S4)CC3)ncnc2s1`, for which, in series [2], it took 9500 nM to inhibit growth by half (GI50).

`C[C@@]12CN(CC(O)CCCc3ccccc3)C[C@@](C)(C1)c1cccc(=O)n1C2` (stereo not given in full) came in with a 50% inhibitory concentration (IC50) in series [5] of 1 nM. That is a single-digit nanomolar value.

In series [5], `O=c1cccc2n1C[C@@H]1C[C@H]2CN(CC(O)CSCc2ccccc2)C1` (stereo not given in full) gave a 50% inhibitory concentration (IC50) of 40 nM.

In the case of `CC(C)N(C(=O)c1cc(F)ccc1Oc1cncnc1N1CC2(CCN(C[C@H]3CC[C@H](NS(C)(=O)=O)CC3)CC2)C1)C(C)C`, the 50% growth inhibitory concentration (GI50) in series [2] amounted to 17 nM; in series [3] it was 13 nM. In series [5], this compound had a half-inhibitory concentration (IC50) of 40000 nM.

Regarding `CNc1nc(NC2CCN(Cc3ccc4c(cc(C#N)n4CC45CC(NC=O)(C4)C5)c3C)CC2)c2cc(CC(F)(F)F)sc2n1`, the 50% growth inhibitory concentration (GI50) in series [2] came out at 7.6 nM; in series [3] it was 12.5 nM. This compound also registered an IC50 in series [4] of 0.5 nM.

`Clc1ccc2c(NCCN3CCN(CCCCCCCN4CCN(CCNc5ccnc6cc(Cl)ccc56)CC4)CC3)ccnc2c1` displayed an IC50 in series [4] of 4.7 nM.
